Assay results taken from PMC6692352, “DF2726A, a new IL-8 signalling inhibitor, is able to counteract chemotherapy-induced neuropathic pain” (Scientific Reports, 2019).

Key:
CYP 2C9 = CYP 2C9 (Homo sapiens, UniProt P11712); assay: CYP inhibition 2C9; type: in vitro ADME
From the text: Table 1 Physicochemical and in Vitro ADME Properties of DF2726A. | column: DF2726A

[1] = tested on: oxaliplatin-induced cold allodynia; assay: Oxaliplatin-induced cold allodynia (acetone test); type: in vivo, male Wistar rats; conditions: 30 mg/kg os for 24 days; from day 5 (P < 0.01) to final test day (P < 0.001)
Procedure: Behavioural tests were performed on male Wistar rats (200–250 g, Harlan, Italy) housed in the animal care facility at the Department of Pharmacy of the University of Naples Federico II, Italy, as previously described. Animals were housed, in a group of five, in a room with controlled temperature (22 ± 1 °C), humidity (60 ± 10%) and light (12 h per day); food and water were available ad libitum. All animals were weighted on the day of each treatment. All behavioural tests were performed between 09:00 and 17:00 h, and the animals were used only once. Animal care and manipulations were conducted in conformity with International and National law and policies (EU Directive 2010/63/EU for animal experiments, ARRIVE guidelines, and the Basel declaration including the 3R concept). The procedures reported here were approved by the Institutional Committee on the Ethics of Animal Experiments (CVS) of the University of Naples Federico II and by Ministero della Salute under protocol no. 2014-00884607. […]
Cold sensitivity was measured as the number of foot withdrawal responses after application of acetone to the dorsal surface of the paw[8],[22]. […] The mean of paw withdrawal (expressed in numbers) was determined from an average of six separate measurements. Cold responses were measured before (day -1) and then 3, 5, 7, 10, 14 and 21 days after first administration of oxaliplatin or vehicle. […]

Iba-1 = assay: Western blot of DRG of oxaliplatin rats, microglia marker Iba-1; type: in vivo, male Wistar rats; conditions: 30 mg/kg os; p < 0.01 vs OXA rats
Procedure: (§1) Animals were sacrificed and dorsal root ganglia (DRG) (L4-L6) were removed and stored at […]. They were homogenized on ice-cold lysis buffer [20 mM Tris–HCl (pH 7.5), 10 mM NaF, 150 mM NaCl, 1% Nonidet P-40, 1 mM phenylmethylsulfonyl fluoride, 1 mM Na3VO4, leupeptin and trypsin inhibitor 10 μg/mL; 20 µl/sample, as previously described.
(§2) After 1 h, tissue lysates were obtained by centrifugation at 20,000 g for 15 min at 4 °C. Protein concentrations were estimated by the Bio-Rad protein assay using bovine serum albumin as standard.
(§3) DRG lysate proteins (30 μg) were dissolved in Laemmli sample buffer, boiled for 5 min, and separated on SDS-polyacrylamide gel elctrophoresis and transferred onto nitrocellulose membrane (240 mA for 40 min at room temperature). […] The protein bands were scanned and densitometrically analyzed with a model GS-700 imaging densitometer (Bio-Rad Laboratories, Milan, Italy). […]

GFAP = assay: Western blot of DRG of oxaliplatin rats, astrocyte marker GFAP; type: in vivo, male Wistar rats; conditions: 30 mg/kg os; p < 0.01 vs OXA rats
Procedure: as §1, §2, §3

Chain of CYP 2C9 (P11712 whole entry): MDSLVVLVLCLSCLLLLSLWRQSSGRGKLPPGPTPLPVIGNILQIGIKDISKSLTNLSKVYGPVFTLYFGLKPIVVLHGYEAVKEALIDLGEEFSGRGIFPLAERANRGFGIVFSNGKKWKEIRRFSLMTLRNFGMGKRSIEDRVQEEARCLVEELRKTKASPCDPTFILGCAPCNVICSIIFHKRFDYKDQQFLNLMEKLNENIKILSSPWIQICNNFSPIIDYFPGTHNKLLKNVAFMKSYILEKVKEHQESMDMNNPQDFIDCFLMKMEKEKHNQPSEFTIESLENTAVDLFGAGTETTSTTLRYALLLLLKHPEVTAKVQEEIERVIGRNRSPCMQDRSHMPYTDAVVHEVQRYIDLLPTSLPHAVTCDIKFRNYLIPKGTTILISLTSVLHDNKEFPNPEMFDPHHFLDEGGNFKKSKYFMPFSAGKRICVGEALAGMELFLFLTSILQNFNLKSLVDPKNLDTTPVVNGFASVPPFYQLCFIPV

## CC(C)(C(=O)O)c1ccc(Nc2nc(C(F)(F)F)cs2)cc1 [DF2726A]
CYP 2C9
  IC50: > 30 µM
[1]
  Effect on oxaliplatin-induced cold allodynia (acetone paw withdrawal responses): marked attenuation of cold allodynia
Iba-1
  Iba-1 expression in DRG of oxaliplatin rats: significantly reduced the expression
GFAP
  GFAP expression in DRG of oxaliplatin rats: significantly reduced the expression
